Experimental data taken from patent publication US8546401B2, “5,6-disubstituted oxindole-derivatives and use thereof for treating vasopressin-dependent diseases” (AbbVie Deutschland GmbH & Co. KG, priority 2007, dated 2013).

How the values were obtained:
[1] = target: T1, human vasopressin V1b receptor (Homo sapiens, UniProt P47901); assay: Vasopressin V1b receptor binding assay; details: CHO-K1 membranes, 3H-AVP displacement
T1 construct: expressed in transfected cells; host or cells: CHO-K1 (cell line hV1b_3H2_CHO), membrane preparation
T1 sequence (P47901 1-424): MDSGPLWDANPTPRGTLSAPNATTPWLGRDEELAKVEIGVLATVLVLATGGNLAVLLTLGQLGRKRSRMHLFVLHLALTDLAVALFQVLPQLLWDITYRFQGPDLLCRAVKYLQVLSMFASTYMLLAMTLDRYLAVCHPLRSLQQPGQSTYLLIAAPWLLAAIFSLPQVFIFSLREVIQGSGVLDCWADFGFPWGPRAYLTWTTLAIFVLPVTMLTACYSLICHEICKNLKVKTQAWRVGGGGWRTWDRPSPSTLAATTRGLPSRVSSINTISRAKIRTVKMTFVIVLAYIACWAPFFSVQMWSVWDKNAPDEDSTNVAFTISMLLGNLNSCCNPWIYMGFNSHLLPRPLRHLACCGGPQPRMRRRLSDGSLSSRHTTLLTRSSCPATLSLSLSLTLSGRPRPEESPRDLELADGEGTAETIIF
Procedure, shortened: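 Membranes (50 μg/ml protein) from CHO-K1 cells stably expressing human V1b were incubated with 1.5 nM ^3H-AVP in 50 mM Tris, 10 mM MgCl2, 0.1% BSA, pH 7.4, for 60 min at room temperature, 2% DMSO final. Bound ligand measured after filtration; Ki derived by nonlinear regression using Kd 0.4 nM.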

[2] = target: T2, human vasopressin V1a receptor (Homo sapiens, UniProt P37288); assay: Vasopressin V1a receptor binding assay; details: selectivity quotient, human receptors
T2 construct: expressed in transfected cells; host or cells: CHO-K1 (cell line hV1a_5_CHO), membrane preparation
Procedure, shortened: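 Membranes from CHO-K1 cells stably expressing the receptor (hV1a_5_CHO; 20 μg/ml protein) were incubated 60 min at room temperature with 0.04 nM ^125I-AVP and increasing test compound in 50 mM Tris, 10 mM MgCl2, 0.1% BSA, pH 7.4. Nonspecific binding was defined with 1 μM AVP and read by filtration and scintillation. Ki came from nonlinear regression using Kd 1.33 nM.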

human oxytocin receptors = target: T3, human oxytocin receptors (Homo sapiens, UniProt P30559); assay: Oxytocin receptor binding assay; details: selectivity quotient
T3 construct: expressed in transfected cells; host or cells: HEK-293, transient expression; lysed and homogenized cells
T3 sequence (P30559 1-389): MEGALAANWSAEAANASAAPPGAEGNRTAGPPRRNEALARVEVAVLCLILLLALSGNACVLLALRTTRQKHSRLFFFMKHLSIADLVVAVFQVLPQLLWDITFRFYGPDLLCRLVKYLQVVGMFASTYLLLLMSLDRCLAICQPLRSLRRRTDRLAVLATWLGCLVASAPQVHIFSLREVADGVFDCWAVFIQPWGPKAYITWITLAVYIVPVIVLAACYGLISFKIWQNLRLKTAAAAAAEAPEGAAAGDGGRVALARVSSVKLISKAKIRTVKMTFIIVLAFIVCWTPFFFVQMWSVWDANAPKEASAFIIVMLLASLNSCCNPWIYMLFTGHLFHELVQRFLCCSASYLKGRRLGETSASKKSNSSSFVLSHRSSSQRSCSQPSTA
Procedure, shortened: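 Membranes from HEK-293 cells transiently expressing human oxytocin receptor, incubated with 3-4 nM ^3H-oxytocin in 50 mM Tris, 10 mM MgCl2, 0.1% BSA, pH 7.4; nonspecific binding with 10^−6 M oxytocin. Filtration and scintillation counting; Ki by nonlinear regression using Kd 7.6 nM.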

T2 sequence (P37288 whole entry): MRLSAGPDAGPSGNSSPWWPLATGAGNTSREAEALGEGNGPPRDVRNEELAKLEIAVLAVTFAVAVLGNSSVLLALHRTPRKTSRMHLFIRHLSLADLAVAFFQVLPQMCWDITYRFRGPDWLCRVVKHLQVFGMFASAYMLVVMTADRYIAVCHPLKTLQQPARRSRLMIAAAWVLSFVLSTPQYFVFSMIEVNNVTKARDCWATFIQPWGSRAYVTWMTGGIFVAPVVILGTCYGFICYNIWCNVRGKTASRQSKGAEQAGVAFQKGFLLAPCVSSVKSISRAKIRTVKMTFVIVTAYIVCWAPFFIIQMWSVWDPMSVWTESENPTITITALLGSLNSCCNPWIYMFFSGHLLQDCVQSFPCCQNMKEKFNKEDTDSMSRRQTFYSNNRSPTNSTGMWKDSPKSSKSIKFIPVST

CCOc1ncccc1C1(OC(=O)N2CCN(C3CCN(C)CC3)CC2)C(=O)N(S(=O)(=O)c2ccccc2OC)c2cc(F)c(F)cc21 (stereo not drawn) [Example 53, 3-(2-Ethoxypyridin-3-yl)-5,6-difluoro-1-(2-methoxyphenylsulfonyl)-2-oxo-2,3-dihydro-1H-indol-3-yl 4-(1-methylpiperidin-4-yl)piperazine-1-carboxylate] was tested, and the Ki [1] was 1 to 10 nM, the “Ki(h − V1a)/Ki(h − V1b)*” value [2] was “++ (25-75)” and the “Ki(h − OT)/Ki(h − V1b)*” value (human oxytocin receptors) was “++ (25-75)”.
